Data set [1] deals with bone marrow-derived macrophages. The data set is described as follows: SIINFEKL antigen cross-presentation (XPT) by polarized bone marrow derived macrophages, MHCI-SIINFEKL antibody, FACS. It is filed as cell-based, mouse. The conditions noted are these: M1 polarized macrophages pre-treated with NextA, OVA peptide 24 hours. On the procedure:
FIG. 1 is a line graph showing the SIINFEKL antigen levels derived from OVA peptide and detected by MHCI-SIINFEKL specific antibody as measured by FACS in bone marrow-derived macrophages from wild type or HDAC6 KO (knockout) mice. Macrophages were pre-treated with Nexturastat A (NextA) 5 μM and then polarized for 24 hours.
FIG. 2 is a graph showing the MHCI-SIINFEKL levels in polarized macrophages derived from wild-type mice pre-treated with NextA and incubated with OVA peptide for 24 hours.
Bone marrow derived macrophages: For macrophage isolation, bone marrow from 6-12 weeks old C57BL/6 mouse was used following an IACUC approved protocol. Briefly, femurs and tibia bones were isolated after removing the skeletal muscles. The bone marrow was flushed with RPMI complete medium supplemented with non-essential amino acids. A single-cell suspension of bone marrow was prepared with repeated pipetting and incubated with 20 ng/mL of mouse recombinant M-CSF (Biolegend) at 37° C. for 4 days to differentiate into macrophages. […]
Endogenous peptides are usually presented through MHC-I to CD8 T-cells and exogenous (from other cells such as tumors) peptides through MHC-II to CD4 T-cells. […] Taking advantage of a highly specific antibody recognizing MHC-I loaded with SIINFEKL peptide, efficiency of antigen XPT was determined. […]

In data set [2] the test system is SM1-OVA murine melanoma cells. As to the kind of experiment: MHCI and MHCI-SIINFEKL levels in SM1-OVA melanoma cells by flow cytometry. In kind it is cell-based, mouse. To be noted: for MHC-I mediated SIINFEKL antigen presentation: over time. The procedure:
FIG. 3 is a bar graph showing the MHCI and MHCI-SIINFEKL levels after SM1-OVA (SM1 cells expressing OVA peptide) melanoma cells were treated with 5 μM NextA for 24 hours. MHCI and MHCI-SIINFEKL levels were measured by FACS.
FIG. 25 is a panel of four bar graphs showing the MHCI-SIINFEKL levels when SM1 cells stably expressing OVA (SM1-OVA cells) peptide are exposed to 4 Gy of radiation, NextA, or a combination at the times indicated. MHC-I mediated SIINFEKL antigen presentation was measured by flow cytometry.
Cell culture: SM1 murine melanoma cells were obtained from Dr. A. Ribas at the University of California, Los Angeles, and cultured in an incubator in RPMI 1640, 1% penicillin-streptomycin, and 10% fetal bovine serum at 37° C. with 5% CO2.
(§1) Flow cytometry: Flow cytometry was performed following the protocol described previously. Knox et al., Sci Rep. 2019 Oct. 10; 9(1):14824. doi: 10.1038/s41598-019-51403-6. Briefly, mice were euthanized following the IACUC protocol, and tumor cells were processed into a single cell suspension for analysis by flow cytometry with tumor digestion buffer. The following antibodies were used to stain cell surface markers expressed by different immune cells. All the antibodies were purchased from Biolegend (San Diego, CA) unless otherwise specified. Myeloid cell surface markers are as follows: APC anti-mouse CD80 (clone 16-10A1), PE/Cy7 anti-mouse CD206 (MMR) (clone C068C2), APC/Fire™ 750 anti-mouse CD45.2 (clone 104), FITC anti-mouse H-2 (clone M1/42), Brilliant Violet 785™ anti-mouse F4/80 (clone BM8), and Alexa Fluor® 700 anti-mouse CD3 (clone 17A2). To distinguish between MHCI and MHCI-bound to SIINFEKL, we used APC anti-mouse H-2Kb bound to SIINFEKL antibody (clone 25-D1.16). Multi-color flow data acquisition was performed on BD Celesta, and data analysis was performed with FlowJo software (version 10.3). Statistical analyses were performed with GraphPad Prism Software (version 7.03).
The combination of radiation and HDAC6 inhibition increases antigen presentation in a time dependent manner. […] Radiation with HDAC6 inhibition increases antigen presentation in tumor cells. FIG. 25. The sequencing of NextA and radiation treatment for effective antigen presentation in tumor cells is show in FIG. 26.

Data set [3] concerns Bone marrow derived macrophages (BMDMs). As to the kind of experiment: Polarization of bone marrow derived macrophages to M1 (LPS/IFNγ) or M2 (IL4/IL13) phenotype by flow cytometry. It is filed as cell-based, mouse. On the procedure:
(§2) Bone marrow derived macrophages: For macrophage isolation, bone marrow from 6-12 weeks old C57BL/6 mouse was used following an IACUC approved protocol. Briefly, femurs and tibia bones were isolated after removing the skeletal muscles. The bone marrow was flushed with RPMI complete medium supplemented with non-essential amino acids. A single-cell suspension of bone marrow was prepared with repeated pipetting and incubated with 20 ng/mL of mouse recombinant M-CSF (Biolegend) at 37° C. for 4 days to differentiate into macrophages.
as §1
Bone marrow derived macrophages (BMDMs) isolated from femur and tibia of C57BL/6 mouse were differentiated into macrophages with M-CSF. These naïve macrophages were pre-treated with NextA and polarized to M1 macrophages with LPS/IFNγ or M2 macrophages with IL4/IL13.

The subject of data set [4] is bone marrow derived macrophages. As to the kind of experiment: Gene expression of polarization markers, cytokines and antigen processing genes in macrophages by quantitative real-time PCR. In kind it is cell-based, mouse. The procedure: Quantitative analysis of gene expression. Total RNA was isolated from cells following the manufacturer's instructions of QIAzol lysis reagent (Qiagen, 79306). RNA quantification was done using a NanoDrop One spectrophotometer (NanoDrop Technologies). Samples with absorbance at 260/280 nm ratios over 1.9 were used for cDNA synthesis with the iScript cDNA synthesis kit (Bio-Rad, 1708891). Synthesized cDNA from 1 μg of total RNA was diluted 1:10 with nuclease-free water. The quantitative PCR analysis was performed using iQ SYBR Green Supermix (Bio-Rad, 1708882) on a CFX96 real-time system (Bio-Rad). Gene expression analysis was performed using the 2^−ΔΔCt method, and target mRNA levels were normalized to GAPDH expression. Cycling conditions were used as per the manufacturer's instructions. Single PCR product amplification was confirmed by melting curve analysis in all the experiments performed.
as §2
Further validation of M2 polarization markers at gene expression levels by quantitative real-time PCR indicate that Arginase I, IL-10 and TGFβ, which are tumor-promoting factors, were decreased. FIG. 9, FIG. 10, and FIG. 11. The expression of M1 polarization markers and anti-tumor, pro-inflammatory cytokines such as TNFα and IL-1B were increased. FIG. 12 and FIG. 13.

The mark [5] stands for this setting: M1 macrophages compared to M0 after treatment.
[6] abbreviates: pre-treated polarized macrophages.

Structures are written as SMILES.

With `CCCCN(Cc1ccc(C(=O)NO)cc1)C(=O)Nc1ccccc1` [NextA, Nexturastat A], the “M1 XPT (cross-presentation of SIINFEKL peptide by MHC-I)” value in data set [1] is “increased”. In data set [2] (5 μM NextA for 24 hours), the “presence of MHC I” value is given as “increased” and the “presence of SIINFEKL-loaded MHC-I” value is recorded as “increased”. For the same molecule, the “MHC-I mediated SIINFEKL antigen presentation” value in data set [2] (NextA alone) is given as “time dependent increases”. For the same molecule, in data set [2] (NextA in combination with 4 Gy of radiation), the “MHC-I mediated SIINFEKL antigen presentation” value is given as “time dependent increases”. In the data set with Macrophages, the “concentration over which high cytotoxicity is induced” value was “over 5 μM”. The “pro-tumoral M2 phenotype of macrophages” value in data set [3] (data not shown) is “reduced”. Further, in data set [3] (pre-treatment of naïve macrophages, then IL4/IL13), the “polarization of M2 macrophages” value was “decreased”. Besides, in data set [3] (pre-treatment of naïve macrophages, then LPS/IFNγ), the “polarization of M1 macrophages” value is “did not affect”. Besides, in data set [4] (M0 macrophages), the “IL1 beta expression (M1 pro-inflammatory cytokine)” value is given as “increases”, the “IL10 expression (M2 anti-inflammatory cytokine)” value is given as “decreased”, the “IL12 expression (M1 pro-inflammatory cytokine)” value is on record as “increases” and the “TGF beta expression (M2 anti-inflammatory cytokine)” value was “decreased”. Also, the “TNF alpha expression (M1 pro-inflammatory cytokine)” value in data set [4] (M0 macrophages) is recorded as “increases”. In data set [4] (setting [5]), the ERAP1 gene expression entry is given as “increased”, the TAP1 gene expression entry was “increased”, the TAP2 gene expression result is on record as “increased” and the TAPBP gene expression entry is given as “increased”. For the same molecule, in data set [4] (setting [6]), the “Arginase I gene expression (M2 polarization marker)” value is “decreased”, the “IL-1B gene expression (M1 marker)” value is given as “increased”, the “IL-10 gene expression (M2 marker)” value is listed as “decreased” and the “TGFβ gene expression (M2 marker)” value is “decreased”. Moreover, the “TNFα gene expression (M1 marker)” value in data set [4] (setting [6]) was “increased”.

The values above are taken from patent publication US12485174B2, “HDAC6-activated macrophages, compositions, and uses thereof” (The George Washington University, A Congressionally …, priority 2019, dated 2025).
